# Values of other authors, collected in US7135436B2, “Solid algicide, preparation and usage in recirculating water” (J.F. Daley International, Ltd., priority 2003, dated 2006).
# Details: at 20° C.; 'believed to be'
structure (smiles),measurement,value
"CCNc1nc(Cl)nc(NC(C)(C)C)n1 [terbuthylazine, 2-(tert-butylamino)-4-chloro-6-(ethylamino)-s-triazine]",solubility of terbuthylazine in water,about 5 ppm
